Patent publication US20190201526A1, “Methods and Compositions for Treating Cancers by Inhibiting Estrogen Signaling in Myeloid-Derived Suppressor Cells” (The Wistar Institute of Anatomy and Biology, priority 2016, published 2019)

Columns and labels:
[1] = test system: ID8-Defb29/Vegf-α cells; assay: Cell line proliferation by MTS assay; type: cell-based, mouse; settings: ID8-Defb29/Vegf-α cells in vitro, increasing doses, steroid-free media; MCF-7 as positive control (FIG. 1D)
Description: (§1) ID8 cells were retrovirally transduced to express Defb29 and Vegf-α (Conejo-Garcia, et al. “Tumor-infiltrating dendritic cell precursors recruited by a beta-defensin contribute to vaculogenesis under the influence of Vegf-A.” Nat. Med. (2004) 10:950-8). MCF-7, MDA-MB-231, and LLC1 cells were obtained from American Type Culture Collection. Peritoneal tumors were initiated in mice by injecting 3X106 ID8-Defb29/Vegf-α cells intraperitoneal (i.p.). Intraperitoneal cells were harvested from tumorbearing mice by flushing the peritoneal cavity with PBS. Cells were maintained in vitro at 37° C., 5% CO2 by culturing in RPMI+10% FBS or steroid free media (SFR10), which was comprised of phenol red-free RPMI+10% charcoal-stripped FBS. Cells were treated in vitro with vehicle (0.1% DMSO) or varying concentrations of estradiol, fulvestrant, or Methylpiperidino pyrazole (MPP) purchased from Cayman Chemical. Cell line proliferation was determined by MTS assay (Promega), and increased/decreased proliferation relative to vehicle was calculated.

[2] = test system: STAT3; assay: pSTAT3 in MDSCs from tumor-bearing mice (Western blot); type: in vivo, mouse; settings: spleens of advanced ovarian cancer-bearing mice treated with E2, compared to oophorectomized mice (FIG. 6A)
Method: (§2) Female 5-8 week old wild-type (WT) C57BL/6 and congenic Ly5.1 mice were purchased from the Charles River Frederick facility. Esr1 knockout (ERα KO) were purchased from The Jackson Laboratory. Ovariectomies were performed by Charles River staff at 5 weeks of age. Mice were treated with vehicle (0.1% ethanol) or 10 μM estradiol (USP grade, Sigma) drinking water refreshed every 3-4 days. All mice were maintained in pathogen-free barrier facilities. All experiments were conducted according to the approval of the Wistar Institute Institutional Animal Care and Use Committee.
Cells were lysed in RIPA buffer supplemented with protease inhibitors, phosphatase inhibitors, and Na3VO4 (Thermo) according to manufacturer protocol. Protein quantification was determined via BCA assay, and protein was run on TGX 4-15% gradient gels. Following transfer, PVDF membranes were blocked with 5% BSA in TBS+ 0.05% Tween-20. The following primary antibodies were added to membranes, as indicated, and incubated overnight: Jak2 (rabbit clone#D2E12), Stat3 (clone#124H6) and pStat3 (Tyr705)(rabbit clone#D3A7), from Cell Signaling; and ERα (Thermo, clone#TE111.5D11) and beta-actin (Sigma, clone#AC-15).
Following secondary staining with HRP-conjugated anti-mouse or rabbit IgG, membranes were developed using ECL prime (GE Healthcare).

[3] = test system: G- or M-MDSCs isolated from 6-day bone marrow cultures; assay: MDSC suppression assay (Cell Trace Violet dilution of T cells); type: cell-based, mouse; settings: 6-day BM cultures
Method: (§3) Mouse MDSCs were expanded from mouse bone marrow harvested by flushing tibias and femurs with media. Following red blood cell lysis, 2.5×10^6 cells were cultured in 10 mL of RPMI+10% FBS augmented with recombinant mouse 40 ng/mL GM-CSF^+40 ng/mL IL6 (Peprotech) and incubated at 37° C., 5% CO2 3 or 6 days. Vehicle, estradiol, or MPP treatments were added as described above. For 6 day cultures, cytokines and estrogen treatments were refreshed on day 3. Following incubation, floating and adherent cells were collected, and MMDSCs and G-MDSCs were isolated via MDSC purification kit according to manufacturer's protocol for further analysis. Human MDSCs were expanded from human lung cancer patient bone marrow acquired as single cell suspensions (see above). Briefly, 2×10^6 cells were cultured in 3 mL of IMDM^+ 15% FBS supplemented with recombinant human 40 ng/mL GM-CSF^+ 40 ng/mL IL6 (Peprotech) and treated with Vehicle, 2 μM, or 10 μM MPP (see above) for 4 days. Cells were subsequently harvested and analyzed by flow cytometry.
Naïve WT T cells were purified from spleens as described and labeled with the proliferation tracker Cell Trace Violet according to manufacturer protocol. T cell proliferation was stimulated by adding anti-CD3/CD28 mouse T-activator beads (Thermo) at a 1:1 T cell to bead ratio according to manufacturer protocol. […]

[4] = test system: Jak2; assay: Jak2 RNA and protein expression in BM-derived MDSCs; type: cell-based, mouse
Method: as §3
(§4) Cells were lysed in RIPA buffer supplemented with protease inhibitors, phosphatase inhibitors, and Na3VO4 (Thermo) according to manufacturer protocol. Protein quantification was determined via BCA assay, and protein was run on TGX 4-15% gradient gels. Following transfer, PVDF membranes were blocked with 5% BSA in TBS+ 0.05% Tween-20. […]

[5] = test system: STAT3; assay: pSTAT3 and total STAT3 in in vitro BM-derived MDSC cultures (Western blot); type: cell-based, mouse; settings: 100 ng/mL E2 or 2 μM MPP (FIG. 6B)
Method: as §3, §4

[6] = test system: ID8-Defb29/Vegf-α peritoneal tumors; assay: Intraperitoneal ID8-Defb29/Vegf-α ovarian tumor model (survival, flow cytometry, ELISpot); type: in vivo, mouse
Method: as §2, §1
For generating mixed BM chimeras, mononuclear BM cells were collected from adult agematched CD45.1 (congenic) WT or CD45.2 Esr1^−/− donor mice, and 1-2×10^6 cells were mixed in a 1:1 ratio and retro-orbitally injected into lethally irradiated (˜950 rad) adult recipients. Mixed chimeras were analyzed after 7-8 weeks as indicated.
(§5) Flow cytometry was performed by staining cells with Zombie Yellow viability dye, blocking with anti-CD16/32 (2.4G2), and staining for 30 min at 4° C. with the following anti-mouse antibodies: CD45 (30-F11), CD45.1 (A20), CD45.2 (104), CD11c (N418), I-A/I-E (M5/114.15.2), CD3 (145-2C11), Ly6G (1A8), Ly6C (HK1.4), gp130 (4H1B35), IL6R (D7715A7), Gr1 (RB6-4C5), CD4 (RM4-5), CD8b (YTS156.7.7), CD44 (IM7), CD69 (H1.2F3), CD11b (M1/70); or anti-human antibodies: CD45 (HI30), CD11c (Bul5), HLA-DR-APC/Cy7 (L243), CD15 (HI98), CD14 (HCD14), CD11b (ICRF44), CD33 (WM53), CD19 (HIB19). Samples were subsequently run using an LSRII and analyzed using FlowJo.
Dendritic cells (BMDCs) were differentiated by culturing WT mouse bone marrow for 7 days with 20 ng/mL GM-CSF (Peprotech 315-03), refreshed every 3 days. BMDCs were subsequently primed with tumor antigen by pulsing for 24 hours with irradiated (100 Gy+30 minutes UV) ID8-Defb29/Vegf-α cells at a ratio of 10:1. ELISPOT assay was performed by stimulating 1X105 cells obtained from peritoneal wash with 1X104 antigen-primed BMDCs in a 96-well filter plate (Millipore MSIPS4510) coated with IFNγ capture antibody according to manufacturer's guidelines (eBioscience 88-3784-88). Following incubation at 37° C., 5% CO2 or 48 hours, positive spots were developed using Avidin-AP and BCIP-NBT substrate (R&D Systems SEL002).

[7] = test system: IL6Rα chain, gp130; assay: Surface expression of IL6Rα and gp130 on BM-derived MDSCs (flow cytometry); type: cell-based, mouse
Method: as §5
as §3, with “Human MDSCs were expanded from human lung cancer patient bone marrow acquired as single cell suspensions (see above). Briefly, 2×10^6 cells were cultured in 3 mL of IMDM^+ 15% FBS supplemented with recombinant human 40 ng/mL GM-CSF^+ 40 ng/mL IL6 (Peprotech) and treated with Vehicle, 2 μM, or 10 μM MPP (see above) for 4 days.” left out

[8] = test system: Lewis Lung Carcinomas (LLC); assay: Lewis Lung Carcinoma (LLC) tumor progression in mice; type: in vivo, mouse; settings: estradiol supplementation, WT mice (FIG. 3A)
Method: as §2
ID8 cells were retrovirally transduced to express Defb29 and Vegf-α (Conejo-Garcia, et al. “Tumor-infiltrating dendritic cell precursors recruited by a beta-defensin contribute to vaculogenesis under the influence of Vegf-A.” Nat. Med. (2004) 10:950-8). MCF-7, MDA-MB-231, and LLC1 cells were obtained from American Type Culture Collection. Peritoneal tumors were initiated in mice by injecting 3X106 ID8-Defb29/Vegf-α cells intraperitoneal (i.p.). Intraperitoneal cells were harvested from tumorbearing mice by flushing the peritoneal cavity with PBS. […] Cell line proliferation was determined by MTS assay (Promega), and increased/decreased proliferation relative to vehicle was calculated.

[9] = test system: metastatic solid tumors; settings: patients with metastatic solid tumors; Soliman, et al., Oncotarget 2014; cited from earlier work

| Structure (SMILES) | Proliferation relative to vehicle (response to treatment) [1] | Levels of pSTAT3Y705 in monocytic and granulocytic MDSCs [2] | Inhibitory activity of M-MDSCs ([3]; 100 ng/mL E2 (FIG. 5C, bottom)) | Immunosuppressive activity of G-MDSCs ([3]; 100 ng/mL E2 or 2 μM MPP (FIG. 5C, top)) | Jak2 protein expression ([4]; BM-derived MDSCs (FIG. 6E, right)) | Jak2 RNA expression ([4]; cytokine-induced bone marrow MDSCs of both lineages (FIG. 6E, left)) | Phospho-STAT3 in M-MDSCs and G-MDSCs [5] | Tumor progression in irradiated mice reconstituted with wild-type bone marrow ([6]; E2 treatment, compared to mice reconstituted with ERα-deficient bone marrow (FIG. 4B)) | IFN-γ ELISpot response of tumor-associated T cells to tumor antigens ([6]; T cells from E2-treated mice vs control and oophorectomized mice (FIG. 2C)) | Inflammation at tumor (peritoneal) beds ([6]; ad libitum estradiol supplementation, tumor-bearing mice (FIG. 2A)) | Tumor progression in ERα KO hosts ([6]; estradiol supplementation, ERα KO mice (FIG. 4A)) | Tumor progression in wild-type controls ([6]; estradiol supplementation, wild-type mice (FIG. 4A)) | Proportions of CD44+ CD69+ tumor-associated CD4 and CD8 T-cells ([6]; estradiol-supplemented tumor-bearing mice (FIG. 2B)) | Percentage and total numbers of M-MDSC and G-MDSC ([6]; spleen and tumor beds of tumor-bearing mice (FIGS. 3B to 3E)) | Surface expression of the IL6Rα chain ([7]; BM-MDSCs (FIG. 6D, left)) | Surface expression of gp130 ([7]; BM-MDSCs (FIG. 6D, right)) | Malignant growth of LLC tumors [8] | Survival of LLC tumor-bearing mice [8] | Activity in human clinical trials [9] |
| --- | --- | --- | --- | --- | --- | --- | --- | --- | --- | --- | --- | --- | --- | --- | --- | --- | --- | --- | --- |
| C[C@]12CC[C@@H]3c4ccc(O)cc4CC[C@H]3[C@@H]1CC[C@@H]2O [estradiol] | fail to respond | significantly increased | did not affect | more potently immunosuppressive | reproducible Jak2 up-regulation | transcriptional up-regulation | increased phospho-STAT3 levels | tumors progress significantly faster | responded significantly worse than either group | augmented inflammation | failed to accelerate tumor progression | significant effects | decreases | increased | did not elicit changes | did not elicit changes | accelerated malignant growth | decreased survival | – |
| Cn1cc(C[C@@H](N)C(=O)O)c2ccccc21 [Indoximod, 1-methyl-D-tryptophan] | – | – | – | – | – | – | – | – | – | – | – | – | – | – | – | – | – | – | has shown activity |
